Measurements: PMC10292217, “Gene-nutrient interactions that impact magnesium homeostasis increase risk for neural tube defects in mice exposed to dolutegravir” (Frontiers in Cell and Developmental Biology, 2023)
Read-outs that look alike come from different tables or passages of the source.

What was measured:
[1] = Plasma DTG pharmacokinetics (LC-MS/MS, NCA) in LM/Bc mice; assay type: in vivo, mouse; details: for Tmax / half-life / Cmax / AUC(0-t): female, mouse, plasma; for half-life: read-out: t½ (converted); for Cmax / AUC(0-t): high Mg2+ soy diet; for AUC(0-t): read-out: AUC 0-24
Description: Baseline blood samples were collected via cheek bleed (submandibular vein) from all animals prior to timed matings, and again on GD 9.5. A Goldenrod sterile lancet (MEDIpoint, Inc., Mineola, NY) was used to lance the submandibular vein, and 3-4 drops (∼100 µL) of blood was collected into a Microvette CB 300 Lithium Heparin plasma separator tube (SARSTEDT AG and Co., Germany) and then centrifuged at 2000 g for 8 min. Plasma samples were frozen at −80 °C for LCMS analysis of DTG or ICP-MS determination of cations. DTG detection and quantification was performed at Creighton University using a previously published method ([Bennetto-Hood et al., 2014]) with minor modifications. Briefly, a seven-point calibration curve ranging from 0.1 to 100 μg/mL was challenged with quality control vials at known concentrations of 5, 20, and 80 μg/mL. All controls and calibrators with known drug concentrations were added to DTG-free mouse plasma. To initiate protein precipitation, 120 µL of acetonitrile containing 10 ng/mL of d5- DTG internal standard (Cayman Chemical, Ann Arbor, MI) was added to 20 µL mouse plasma (calibrators, controls, unknown samples), and mixed for 2 min on an orbital shaker (1500 rpm), followed by centrifugation at 2,655 g for 5 min. […] LC-MSMS separation was achieved using Agilent 1200 liquid chromatography devices and an AB Sciex 3200 Q-Trap mass spectrometer. The mobile phase consisted of an isocratic gradient of 0.1% formic acid in water:0.1% formic acid in acetonitrile (60:40) with a flow rate of 0.475 mL/min across an XBridge C18 column (Waters, Milford, MA, United States). […] Strains and treatments were compared by 2-way ANOVA followed by post hoc analyses. Pairwise comparisons of the proportion of affected embryos in each litter between strains and treatments were evaluated by the Fisher least significant difference method. Index value pairwise comparisons were evaluated using the Kruskal–Wallis nonparametric test in Sigma XL (v9.0). Comparisons of cation levels in urine and plasma between strains and between diets as well as the effect of DTG on the incidence of NTDs in LM/Bc dams was performed by one-way ANOVA followed by Dunnett’s multiple comparisons test using GraphPad Prism version 9.5.0 for Windows. The level of significance p < 0.05 was used for all analyses. DTG pharmacokinetics were evaluated by noncompartmental analysis (NCA) using PKsolver ([Zhang et al., 2010]).

[2] = ref Zash et al., cited from earlier work
C57BL/6J mice = tested on: C57BL/6J mice; parameters: method as in Mohan et al., 2021; details: ref Mohan et al., 2021, cited from earlier work
hESC morphogenesis model = tested on: hESC morphogenesis model; parameters: method as in Kirkwood-Johnson et al., 2021; details: ref Kirkwood-Johnson et al., 2021; cited from earlier work
[3] = tested on: P19C5 mouse embryonal carcinoma cell; parameters: method as in Kirkwood-Johnson et al., 2021; details: exposure within the first 1-2 days; ref Kirkwood-Johnson et al., 2021; cited from earlier work
rats = details: 2020, cited from earlier work
[4] = 750 mg/kg/day, pregnant LM/Bc mice, 10 daily oral doses DTG750
[5] = 750 mg/kg/day, pregnant LM/Bc mice, 10 daily oral doses DTG750 GD 0.5-GD 9.5
[6] = 750 mg/kg, non-pregnant LM/Bc mice, single oral dose DTG750
[7] = non-pregnant LM/Bc mice, single oral dose DTG 750 mg/kg
[8] = non-pregnant mouse single dose DTG750 vs human 50 mg single dose
[9] = non-pregnant mouse single dose DTG750 vs human 100 mg single dose
[10] = non-pregnant mouse single dose DTG750 vs human 100 mg × 7d
[11] = pregnant mouse 10 daily doses DTG750 vs pregnant women 2nd trimester 50 mg/d

## C[C@@H]1CCO[C@H]2Cn3cc(C(=O)NCc4ccc(F)cc4F)c(=O)c(O)c3C(=O)N12 [DTG, Dolutegravir]
[1]; [4]
  Tmax: 2 h
  half-life: 4.4 h
[1]; [5]
  Cmax: 128 µg/mL
  AUC(0-t): 847 µg·h/mL
[1]; [6]
  Tmax: 2 h
  half-life: 6.3 h
[1]; [7]
  Cmax: 133 µg/mL
  AUC(0-t): 1300 µg·h/mL
[1]; [8]
  AUC 0-24, mouse multiplication factor vs human: 18.4 x
  Cmax, mouse multiplication factor vs human: 28.9 x
[1]; [9]
  AUC 0-24, mouse multiplication factor vs human: 9.9 x
  Cmax, mouse multiplication factor vs human: 16.4 x
[1]; [10]
  AUC 0-24, mouse multiplication factor vs human: 14.1 x
  Cmax, mouse multiplication factor vs human: 19.8 x
[1]; [11]
  AUC 0-24, mouse multiplication factor vs human: 17.8 x
  Cmax, mouse multiplication factor vs human: 35.3 x
[2]; 4/426 infants exposed to DTG from conception, 2018
  NTD prevalence: .94%
[2]; follow-up study, 5/1683 deliveries, 2019
  prevalence of DTG-NTDs: .30%
[2]; women who began DTG prior to conception, 2018
  increase in the prevalence of NTDs: 9 fold
C57BL/6J mice; 2.5 mg/kg/d oral DTG co-formulated with TDF and FTC from GD 0.5, folate-sufficient diet, 5/150 litters
  NTD-affected litters: 3.3%
C57BL/6J mice; 5x higher dose, n = 111 litters
  NTDs observed: no NTDs were observed
hESC morphogenesis model
  effect on 3D morphogenesis: altered growth and expression of genes involved in body patterning
[3]
  growth and axial elongation: concentration-dependent inhibition of growth and axial elongation
rats; oral doses up to 1000 mg/kg/d, GD 6 to GD 17, ref Stanislaus et al.
  DTG-related maternal or developmental toxicity: no significant evidence
rats; preclinical studies, ref Stanislaus et al.
  NOAEL: 1000 mg/kg/day
